Results reported in PubChem BioAssay AID248 (DTP/NCI, 2004).
Toxic doses and inconclusive results are not listed. Cut-off read from the data, not from the text of the source: active = T/C of 150% or more; inactive = T/C below 125%.

System: L1210 leukemia ip in BDF1 mice, survival T/C
Experiment: NCI In Vivo Anticancer Drug Screen. Data for tumor model L1210 Leukemia (intraperitoneal) in B6D2F1 (BDF1) mice
Conditions: endpoint: mean survival time, higher = longer survival
Outline: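 Each compound was tested against a transplantable tumor grown in mice. The endpoint was survival, with treated animals benchmarked against vehicle controls as a simple ratio.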

[1] = dose: 100.0 mg/kg/injection, schedule: Q01DX009 (ip), vehicle: Klucel (hydroxypropylcellulose) (HPC)
[2] = dose: 100.0 mg/kg/injection, schedule: Q04DX003 (ip), vehicle: Klucel (hydroxypropylcellulose) (HPC)
[3] = dose: 200.0 mg/kg/injection, schedule: Q01DX009 (ip), vehicle: Klucel (hydroxypropylcellulose) (HPC)
[4] = dose: 400.0 mg/kg/injection, schedule: Q01DX009 (ip), vehicle: Klucel (hydroxypropylcellulose) (HPC)

Measured: T/C

C=C(Cl)COC(=O)C(C)O (centres undefined)
inactive: dose: 25.0 mg/kg/injection, schedule: Q01DX001 (ip), vehicle: Klucel (hydroxypropylcellulose) (HPC) 98 % of control | dose: 50.0 mg/kg/injection, schedule: Q01DX001 (ip), vehicle: Klucel (hydroxypropylcellulose) (HPC) 96 % of control | dose: 100.0 mg/kg/injection, schedule: Q01DX001 (ip), vehicle: Klucel (hydroxypropylcellulose) (HPC) 100 % of control

COC(=O)c1cc(C(C)=O)ccc1OC(=O)c1ccccc1
inactive: dose: 100.0 mg/kg/injection, schedule: Q01DX009 (ip), vehicle: saline with Tween-80 98 % of control | dose: 100.0 mg/kg/injection, schedule: Q04DX003 (ip), vehicle: saline with Tween-80 88 % of control | dose: 200.0 mg/kg/injection, schedule: Q01DX009 (ip), vehicle: saline with Tween-80 94 % of control | dose: 200.0 mg/kg/injection, schedule: Q04DX003 (ip), vehicle: saline with Tween-80 90 % of control | dose: 400.0 mg/kg/injection, schedule: Q01DX009 (ip), vehicle: saline with Tween-80 100 % of control | dose: 400.0 mg/kg/injection, schedule: Q04DX003 (ip), vehicle: saline with Tween-80 108 % of control

O=C(NCCCl)NC1CCCCCCCCCCC1
inactive: [1] 98 % of control | [2] 100 % of control | [3] 97 % of control | dose: 200.0 mg/kg/injection, schedule: Q04DX003 (ip), vehicle: Klucel (hydroxypropylcellulose) (HPC) 102 % of control | [4] 89 % of control | dose: 400.0 mg/kg/injection, schedule: Q04DX003 (ip), vehicle: Klucel (hydroxypropylcellulose) (HPC) 102 % of control

Cc1cc(C)c2cc3cccc[n+]3cc2c1
inactive: dose: 2.0 mg/kg/injection, schedule: Q01DX015 (ip), vehicle: saline 100 % of control | dose: 4.0 mg/kg/injection, schedule: Q01DX001 (ip), vehicle: carboxymethylcellulose (CMC) 105 % of control | dose: 4.0 mg/kg/injection, schedule: Q01DX015 (ip), vehicle: saline 107 % of control | dose: 8.0 mg/kg/injection, schedule: Q01DX001 (ip), vehicle: carboxymethylcellulose (CMC) 107 % of control | dose: 16.0 mg/kg/injection, schedule: Q01DX001 (ip), vehicle: carboxymethylcellulose (CMC) 107 % of control

O=C(NCCCCCCNC(=O)Oc1ccccc1F)Oc1ccccc1F
inactive: [1] 102 % of control | [3] 97 % of control | [4] 91 % of control

O=C(COc1ccc(Cl)cc1Cl)NNc1ccc([N+](=O)[O-])cc1
inactive: dose: 100.0 mg/kg/injection, schedule: Q04DX002 (ip), vehicle: saline 100 % of control | dose: 200.0 mg/kg/injection, schedule: Q04DX002 (ip), vehicle: saline 92 % of control | dose: 400.0 mg/kg/injection, schedule: Q04DX002 (ip), vehicle: saline 88 % of control

ClCCN(CCCl)c1ccc(/C=N/N2CCN(/N=C/c3ccc(N(CCCl)CCCl)cc3)CC2)cc1
inactive: dose: 100.0 mg/kg/injection, schedule: Q01DX001 (ip), vehicle: carboxymethylcellulose (CMC) 97 % of control | dose: 200.0 mg/kg/injection, schedule: Q01DX001 (ip), vehicle: carboxymethylcellulose (CMC) 92 % of control | dose: 400.0 mg/kg/injection, schedule: Q01DX001 (ip), vehicle: carboxymethylcellulose (CMC) 106 % of control

O=C(NC1CCCCC1)O/N=C/c1ccccn1
inactive: dose: 100.0 mg/kg/injection, schedule: Q04DX003 (ip), vehicle: other 94 % of control | dose: 200.0 mg/kg/injection, schedule: Q04DX003 (ip), vehicle: other 109 % of control | dose: 400.0 mg/kg/injection, schedule: Q04DX003 (ip), vehicle: other 94 % of control

O=C1NC(=O)C(=O)N1
inactive: dose: 100.0 mg/kg/injection, schedule: Q04DX003 (ip), vehicle: saline 96 % of control | dose: 200.0 mg/kg/injection, schedule: Q04DX003 (ip), vehicle: saline 96 % of control | dose: 400.0 mg/kg/injection, schedule: Q04DX003 (ip), vehicle: saline 86 % of control

O=C(CCl)c1ccc(Oc2ccccc2)cc1
inactive: dose: 20.0 mg/kg/injection, schedule: Q01DX009 (ip), vehicle: Klucel (hydroxypropylcellulose) (HPC) 103 % of control | dose: 20.0 mg/kg/injection, schedule: Q04DX003 (ip), vehicle: Klucel (hydroxypropylcellulose) (HPC) 107 % of control | dose: 40.0 mg/kg/injection, schedule: Q01DX009 (ip), vehicle: Klucel (hydroxypropylcellulose) (HPC) 100 % of control | dose: 40.0 mg/kg/injection, schedule: Q04DX003 (ip), vehicle: Klucel (hydroxypropylcellulose) (HPC) 104 % of control | dose: 80.0 mg/kg/injection, schedule: Q04DX003 (ip), vehicle: Klucel (hydroxypropylcellulose) (HPC) 105 % of control | [2] 89 % of control

CCOC(=O)C(Cc1c[nH]c2cc(N(CCO)CCO)ccc12)(NC(C)=O)C(=O)OCC
inactive: dose: 100.0 mg/kg/injection, schedule: Q01DX001 (ip), vehicle: saline 97 % of control | dose: 200.0 mg/kg/injection, schedule: Q01DX001 (ip), vehicle: saline 101 % of control | dose: 400.0 mg/kg/injection, schedule: Q01DX001 (ip), vehicle: saline 98 % of control
